Test results: patent US20050106213A1, “Resorption-controlled bone implants” (priority 2001, published 2005)

What was measured:
osteoclast proton pump = assay: Calcibon cement rods doped with Panto IV implanted in femur of young Wistar rats, histology; assay type: in vivo, rat; conditions: 4 mg Panto IV per mL neutral phosphate solution per 500 mg Calcibon, 10 days
Description: Experiments with a commercially available proton pump inhibitor, sodium pantoprazole sold as Panto IV®, were performed in healthy young Wistar rats.
Although Panto IV is highly specific for the proton pumps of the parietal cells, it was hypothesized that it may non-specifically affect other proton pumps, including the osteoclast proton pump. A commercially available calcium phosphate material, Calcibon, was also used which is less resorbable than the previously used CAP to determine whether the strategy for stimulating local bone mass can be used with other materials.
The CAP material used was Calcibon provided by the Merck Biomaterials/Biomet company. The concentration used was 4 mg Panto IV per/mL of neutral phosphate solution per 500 mg of CAP powder used to prepare the cement. The cement doped with the PPI was then allowed to set, as described previously. The pre-set rods were implanted in young Wistar rats according to the same procedure as described previously.

osteoclasts [1] = assay: CAP cement rods or pastes doped with Bafilomycin A1 implanted in rat femur defects, histology; assay type: in vivo
Source text: The calcium phosphate precursor powder consisted of an equimolar mixture of DCPA and TTCP sterilized by gamma irradiation (20 kGy). Deionized double distilled water was obtained from a Millipore Milli-RO 10 Plus and Mill-Q UF Plus systems (Bedford, Mass., USA) operated at 18 MΩ resistance. The liquid phase was a neutral sodium hydrogen phosphate solution at pH 7.4, which was sterilized by filtration through 0.22 μm filters (Millipore Corp., Bedford, Mass., USA).
(§1) Bafilomycin A1 was first dissolved in DMSO solution (other solutions that can be used are methanol and ethanol), and then dispersed in a neutral phosphate solution (pH 7.4) prepared from Na2HPO4 and NaH2PO4.
After Bafilomycin A1 was dispersed in the biphasic liquid phase, the liquid phase was added to one of the solid components of the CAP, dicalcium phosphate anhydrous (DCPA). The DCPA was dissolved in the liquid phase and left at room temperature for 2 min with continuous mixing.
Next, tetracalcium phosphate (TTCP) was gradually added to the first dissolved CAP component to produce a paste. The powder to liquid ratio (P/L) of the final CAP was 2.0 (wt/wt).
The pastes were either implanted or used for the preparation of rods. Cement rods (1.9 mm diameter×2.3 mm height) were shaped by allowing aliquots of packed CPC pastes to set in custom made Teflon® formers for 24 h at 37C and 100% humidity and subsequently for 48 h at room temperature.
Young male Wistar rats with an average body weight of 125-150 g were purchased from Charles River (QC, Canada), housed in light- and temperature-controlled rooms, and fed a standard diet. The maintenance and use of animals were in accordance with the Canadian Council of Animal Care Guidelines.
Bone defects were drilled in the mid-diaphysis of the femur. The holes were made using a low speed dental drill (2.3 mm in diameter) with copious saline irrigation. Pre-hardened CPC rods were placed into the holes using gentle pressure. Every rat received two implants, a control rod (paste) in one femur and a rod (paste) containing Bafilomycin A1 in another femur. The animals were observed daily throughout the implantation period.
After desired time in vivo, the animals were sacrificed, and the femurs were removed. The femurs were then exposed to a fixative solution for 48 h, decalcified in a 1:1 mixture of 45% formic acid and 20% sodium citrate, dehydrated and embedded in low-melting-point paraffin. Serial sections (6 μm thick) perpendicular to the long axis of the implant were obtained using a hard tissue Spencer 820 microtome. Sample sections were stained with hematoxylin-eosin (H&E) and Mason's trichrome stains. Representative sections were also tested for the presence of tartrate resistant acid phosphatase (TRAP) enzyme, characteristic of osteoclasts, to determine the identity of the cells at the material/bone interface.

osteoclasts [2] = assay: Bafilomycin-doped CAP implant rods in ovariectomized aged rats (model of osteoporosis), histology; assay type: in vivo, rat; conditions: ovx aged Brown Norway rats, 75-100 μg per 500 mg CAP
Description: Performance of the bafilomycin-doped implant was also assessed in a model of osteoporosis which utilizes ovarectomized aged rats. Successful integration of osseous implants with host bone tissue can be adversely affected by pathological bone conditions such as osteoporosis, which result in osteopenia due to disturbance of the balance between bone resorption and bone formation processes. Therefore, systemic bone loss due to estrogen deficiency may also affect bone growth and maintenance around the implants. Although current attention has been focused in the art on systemic fracture prevention and development of new therapies aimed at conserving bone mass, little emphasis has been given to increasing osteointegration of implants in osteoporotic defect site.
The effects of ovariectomy on bone tissue formation and resorption of proton pump inhibitor (Bafilomycin A1)—modified resorbable CAP cement implants in comparison to the controls were studied.
Ten-month old ovariectomized (ovx) virgin Brown Norway rats with were purchased from the National Institute on Aging (Bethesda, Md., USA), housed individually in light- and temperature-controlled rooms, and fed a restricted diet (6 pellets/day). These animals were kept for additional four months following the ovariectomy. […]

osteoclasts [3] = assay: Bafilomycin-doped CAP implant rods in young and non-ovx aged Brown Norway rats (comparison groups), histology; design: species or system rat; conditions: young control group and non-ovx aged group; observed even at 4 months in vivo
Source text: Ten-month old ovariectomized (ovx) virgin Brown Norway rats with were purchased from the National Institute on Aging (Bethesda, Md., USA), housed individually in light- and temperature-controlled rooms, and fed a restricted diet (6 pellets/day). These animals were kept for additional four months following the ovariectomy. Non-ovx virgin Brown Norway rats of the same age as the experimental rats at the time of implantation (fourteen months) were used as a control group for the ovx animals. Young virgin female Brown Norway rats (three months old) were used as another comparison group to assess the implant integration and resorption. The maintenance and use of animals were in accordance with the Canadian Council of Animal Care Guidelines.
Production of the CAP implant doped with bafilomycin was performed as described above, i.e., resorbable CAP based on the TTCP and DCPA chemistry. Bafilomycin in concentration of 75-100 μg per 250 μL of liquid neutral phosphate phase per 500 mg of CAP was used.
The implants were allowed to set to form pre-hardened implant rods. The implants were retrieved at 10 days, 1 month, 2 months, and 4 months post-surgery.

[4] = Solubility of Bafilomycin A1 in solvent for liquid phase preparation; assay type: physicochemical; conditions: at 2.0×10^−3 M
Source text: as §1

SMILES | reparative bone mass surrounding the implant versus control (osteoclast proton pump) | control of CAP cement resorption (dose range study outcome) (osteoclasts [1]; 1.61×10^−4 M Bafilomycin A1 in liquid phase (DMSO solvent), rat femur implant) | amount of new bone surrounding the implant versus control cement (osteoclasts [1]; 1.61×10^−4 M, all specimens studied, young male Wistar rats) | resorption rate of CAP cement in comparison to controls (osteoclasts [1]; 1.61×10^−4 M, histology, young male Wistar rats) | formation of osteoclastic cutting cones into the material (osteoclasts [1]; 1.61×10^−4 M, tissue/material interface) | density of new bone surrounding the cement versus control (osteoclasts [1]; 1.61×10^−4 M, young male Wistar rats) | bone healing around the implant (osteoclasts [1]; highest concentration 2.0×10^−3 M Bafilomycin A1 in liquid phase (methanol solvent), rat femur implant) | response of CAP implanted as paste (resorption, new bone) (osteoclasts [1]; injectable paste, 14 days after implantation, rat femur) | histology / resorption of cement versus control (osteoclasts [1]; lowest concentration 1.61×10^−5 M Bafilomycin A1 in liquid phase (DMSO solvent), rat femur implant) | resorption of implant in comparison to control material (osteoclasts [2]; throughout 4-month in vivo period) | local bone mass around implant (osteoclasts [2]; up to 4 months) | bone formation around the material doped with PPI (trend) (osteoclasts [3]) | resorption of the material doped with PPI (trend) (osteoclasts [3]) | solubility in DMSO [4]
COc1ccnc(Cc2nc3cc(OC(F)F)ccc3[nH]2)c1OC [Panto IV, 5-difluoromethoxy-2-[(3,4-dimethoxy-2-pyridinyl)methyl]-1H-benzimidazole] | surrounded by higher reparative bone mass than the control | – | – | – | – | – | – | – | – | – | – | – | – | –
CO/C1=C\C(C)=C\[C@@H](C)[C@@H](O)[C@@H](C)C/C(C)=C/C=C/[C@H](OC)[C@@H]([C@@H](C)[C@@H](O)[C@H](C)[C@@]2(O)C[C@@H](O)[C@H](C)[C@@H](C(C)C)O2)OC1=O [Bafilomycin A1] | – | found to work very well | consistently surrounded by more bone than the control cements | decreased the resorption rate | did not form “cutting cones” | appeared to be denser than the bone around the controls | the bone would not heal around the implant | showed the same response as that observed for the pre-set cements | did not differ in histology | reduction of the resorption | increased local bone mass | increased bone formation | reduced resorption | solubility of Bafilomycin A1 in DMSO was exceeded
